These are literature values, as cited in patent US20230048872A1, “COMPOSITIONS AND METHODS FOR DIAGNOSING OR TREATING NEUTROPHIL-MEDIATED INFLAMMATORY DISEASE” (THE BOARD OF TRUSTEES OF THE UNIVERSITY OF ILLINOIS, priority 2013, published 2023).

For `Oc1cc(O)cc(/C=C/c2ccc(O)c(O)c2)c1` [Piceatannol, piceatannol], the solubility in water result is “low”.
